Test results as given in patent US6645983B1, “Pharmaceutical compositions comprising 4-quinolones for treating cancers” (Laboratoire L. Lafon, priority 1999, dated 2003).

How the values were obtained:
[1] = test system: A-427; test: MTT test, cytotoxic activity on non-clonogenic cell lines; format: cell-based; conditions: Homo sapiens, 10^−5 M, 72 hours of incubation, control condition = 100%, mean value, read-out: mean optical density as percentage of control, A-427
Procedure: (§1) The principle of the MTT test is based on the mitochondrial reduction, by the metabolically active live cells, of the yellow-colored product MTT (3-(4,5-dimethylthiazol-2-yl)-2,5-diphenyltetrazolium bromide) to a blue-colored product, formazan. The amount of formazan thus obtained is directly proportional to the amount of live cells present in the culture well(s). This amount of formazan is measured by spectrophotometry.
(§2) The cell lines are maintained as a monolayer culture at 37° C. in stoppered culture dishes containing MEM 25 MM HEPES (Minimum Essential Medium) base medium. This medium is suited to the growth of a range of various mammalian diploid or primary cells. This medium is then supplemented with:
(§3) The 12 human cancer cell lines which were used were obtained from the American Type Culture Collection (ATCC, Rockville, Md., USA). These 12 cell lines are:
(§4) Experimentally, 100 μl of a cell suspension containing 20 000 to 50 000 (depending on the cell type used) cells/ml of culture medium are inoculated -in 96-well flat-bottomed multi-well plates and are left to stand in an incubator at 37° C., 5% CO2 and 70% humidity. After an incubation time of 24 hours, the culture medium is replaced with 100 μl of fresh medium containing either the various test compounds—at concentrations varying from 10^−5 to 10^−10 M—or the solvent having served for dissolving the products to be tested (control condition). […] The microplates are thus incubated for 3 hours at 37° C., then centrifuged for 10 minutes at 400 g. The yellowish solution of MTT is removed and the blue formazan crystals formed in the cell region are dissolved in 100 μl or DMSO. The microplates are then shaken for 5 minutes. […] Software incorporated in the spectrophotometer calculates the average optical density values and the standard deviation (SD) and standard error of mean (SEM) values.

[2] = test system: A549; test: as above; format: cell-based; conditions: Homo sapiens, 10^−5 M, 72 hours of incubation, control condition = 100%, mean value, read-out: mean optical density as percentage of control, A549
Procedure: as §1, §2, §3, §4

[3] = test system: HCT-15; test: as above; format: cell-based; conditions: Homo sapiens, 10^−5 M, 72 hours of incubation, control condition = 100%, mean value, read-out: mean optical density as percentage of control, HCT-16
Procedure: as §1, §2, §3, §4

[4] = test system: LoVo; test: as above; format: cell-based; conditions: Homo sapiens, 10^−5 M, 72 hours of incubation, control condition = 100%, mean value, read-out: mean optical density as percentage of control, LoVo
Procedure: as §1, §2, §3, §4

[5] = test system: MCF7; test: as above; format: cell-based; conditions: Homo sapiens, 10^−5 M, 72 hours of incubation, control condition = 100%, mean value, read-out: mean optical density as percentage of control, MCF7
Procedure: as §1, §2, §3, §4

[6] = test system: PC-3; test: as above; format: cell-based; conditions: Homo sapiens, 10^−5 M, 72 hours of incubation, control condition = 100%, mean value, read-out: mean optical density as percentage of control, PC-3
Procedure: as §1, §2, §3, §4

[7] = test system: T-47D; test: as above; format: cell-based; conditions: Homo sapiens, T47D; 10^−5 M, 72 hours of incubation, control condition = 100%, mean value; read-out: mean optical density as percentage of control, T-47D
Procedure: as §1, §2, §3, §4

[8] = test system: U-373MG; test: as above; format: cell-based; conditions: Homo sapiens, U373 MG; 10^−5 M, 72 hours of incubation, control condition = 100%, mean value; read-out: mean optical density as percentage of control, U-373MG
Procedure: as §1, §2, §3, §4

[9] = test system: U-87MG; test: as above; format: cell-based; conditions: Homo sapiens, U-87 MG; 10^−5 M, 72 hours of incubation, control condition = 100%, mean value; read-out: mean optical density as percentage of control, U-87MG
Procedure: as §1, §2, §3, §4

[10] = test system: SW1088; test: as above; format: cell-based; conditions: Homo sapiens, 10^−5 M, 72 hours of incubation, control condition = 100%, mean value, read-out: mean optical density as percentage of control, SW1088
Procedure: as §1, §2, §3
SW1088 (code ATCC: HTB-12) which is an astro-cytoma,
as §4

[11] = test system: J82; test: as above; format: cell-based; conditions: Homo sapiens, 10^−5 M, 72 hours of incubation, control condition = 100%, mean value, read-out: mean optical density as percentage of control, J82
Procedure: as §1, §2, §3
(§5) J82 (code ATCC: HTB-1) and T24 (code ATCC: HTB-4) which are two bladder cancers,
as §4

[12] = test system: T24; test: as above; format: cell-based; conditions: Homo sapiens, T-24; 10^−5 M, 72 hours of incubation, control condition = 100%, mean value; read-out: mean optical density as percentage of control, T24
Procedure: as §1, §2, §3, §5, §4

[13] = Determination of the maximum tolerated dose (MTD); conditions: B6D2F1/Jico, mouse, in vivo, ip; single intraperitoneal administration, doses 2.5 to 160 mg/kg, survival over 14 days
Procedure: The evaluation of the maximum tolerated dose was performed on 4- to 6-week-old B6D2F1/Jico mice. The compounds were administered intraperitoneally at increasing doses ranging from 2.5 to 160 mg/kg. The value of the MTD (expressed in mg/kg) is determined from the observation of the survival rate of the animals over a 14-day period after a single administration of the product under consideration. The change in weight of the animals is also monitored during this period. When the MTD value is greater than 160 mg/kg, the MTD value is considered as being 160 mg/kg by default.

Compound	viability at 10 µM [1] [%]	viability at 10 µM [2] [%]	viability at 10 µM [3] [%]	viability at 10 µM [4] [%]	viability at 10 µM [5] [%]	viability at 10 µM [6] [%]	viability at 10 µM [7] [%]	viability at 10 µM [8] [%]	viability at 10 µM [9] [%]	viability at 10 µM [10] [%]	viability at 10 µM [11] [%]	viability at 10 µM [12] [%]	MTD at 14 day [13] [mg/kg]
COc1ccc(-c2c[nH]c3cc(OC)c(OC)cc3c2=O)cc1 [CRL8354, 6,7-Dimethoxy-3-(4-methoxyphenyl)-1,4-dihydro-4-quinolinone]	97.2	98.5	95.9	98.4	102	93.7	104	97.7	102	93.2	98.2	91.4	> 160
COc1ccc(-c2cn(C)c3c(OC)ccc(-c4ccccc4)c3c2=O)cc1 [CRL8405, 8-Methoxy-3-(4-methoxyphenyl)-1-methyl-5-phenyl-1,4-dihydro-4-quinolinone]	19.4	32	15.9	32.3	68.2	85.5	77.1	28.8	25.8	40.8	93.9	57.8	> 160
COc1ccc(OC)c2c(=O)c(-c3ccccc3)c[nH]c12 [CRL8353, 5,8-Dimethoxy-3-phenyl-1,4-dihydro-4-quinolinone]	52.5	42.3	55.7	85.5	49.6	81	87.2	54.5	107	74	79.1	68.6	> 160
COc1ccc(-c2cn(CCN(C)C)c3c(OC)ccc(OC)c3c2=O)cc1 [CRL8382, N-[3-(Dimethylamino)ethyl]-5,8-dimethoxy-3-(4-methoxyphenyl)-1,4-dihydro-4-quinolinone]	89.2	90.4	93.1	96.7	93	100	94.7	101	59.2	118	95.6	99.7	> 160
COc1ccc(-c2cn(C)c3cc(OC)cc(NCc4ccccc4)c3c2=O)cc1 [CRL8424, 5-Benzylamino-7-methoxy-3-(4-methoxyphenyl)-1-methyl-1,4-dihydro-4-quinolinone]	72.7	111	49.8	69.8	95.4	108	108	82.5	87.9	82.7	77.9	102	> 160
COc1cc(OC)c2c(=O)c(-c3ccccc3)c[nH]c2c1 [CRL8352, 5,7-Dimethoxy-3-phenyl-1,4-dihydro-4-quinolinone]	103	94.2	106	103	85.6	97.3	105	104	158	96.8	93	83.7	> 160
COc1ccc2c(c1)c(=O)c(-c1ccccc1)cn2C [CRL8379, 6-Methoxy-1-methyl-3-phenyl-1,4-dihydro-4-quinolinone]	94.2	94	106	102	91.6	99.2	99.3	113	95.3	98.3	101	102	> 160
COc1ccc(-c2cn(C)c3cc(OC)cc(N4CCOCC4)c3c2=O)cc1 [CRL8435, 7-Methoxy-3-(4-methoxyphenyl)-1-methyl-5-morpholino-1,4-dihydro-4-quinolinone]	115	96.7	101	106	93.6	105	95.7	85	85	97.3	100	89.4	> 160
COc1cccc2c(=O)c(-c3ccccc3)c[nH]c12 [CRL8328, 8-Methoxy-3-phenyl-1,4-dihydro-4-quinolinone]	101	92.5	85.8	94.3	93.7	91.9	96	98.1	85.7	91	95.9	94.8	80
CCOC(=O)CCn1cc(-c2ccc(OC)cc2)c(=O)c2c(OC)cc(OC)cc21 [CRL8404]	93.3	93.5	93.7	90.7	93.4	99.7	66.7	104	91.5	72.1	83.8	59.8	> 160
COc1ccc(-c2c[nH]c3c(OC)ccc(OC)c3c2=O)cc1 [CRL8351, 5,8-Dimethoxy-3-(4-methoxyphenyl)-1,4-dihydro-4-quinolinone]	33.7	34.6	39.1	67	49	83.2	55	52.8	116	82.3	39.2	38.4	40
